Assay results published in the supplement of paper PMC4862054.

Legend:
Details in all cases: incubation time: 72 h
[1] = test system: MDA-MB-231; assay: drug sensitivity score (DSS), CellTiter-Glo (DSS (AUC-based score)); higher = stronger drug effect (viability inhibition or cytotoxicity); extreme values may be limits of the assay
Outline: (§1)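 The drug sensitivity score was computed from the area under the fitted dose-response curve. Breast cancer cell lines in 20 µl suspension went into 384-well plates holding compound at 5 concentrations (10-fold steps over a 10,000-fold, compound-specific range) for 72 h of incubation. CellTox Green fluorescence (485/520 nm) was read before CellTiter-Glo luminescence, the latter after 10 min at room temperature, and each plate was normalised to 0.1 % DMSO and a positive kill control.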

[2] = test system: MFM-223; assay: as above
Outline: as §1

[3] = test system: CAL-148; assay: as above
Outline: as §1

[4] = test system: MCF-10A; assay: as above
Outline: as §1

[5] = test system: CAL-120; assay: as above
Outline: as §1

[6] = test system: BT-474; assay: as above
Outline: as §1

[7] = test system: BT-549; assay: as above
Outline: as §1

[8] = test system: MDA-MB-453; assay: as above
Outline: as §1

[9] = test system: CAL-85-1; assay: as above
Outline: as §1

[10] = test system: HCC1937; assay: as above
Outline: as §1

[11] = test system: CAL-51; assay: as above
Outline: as §1

[12] = test system: SK-BR-3; assay: as above
Outline: as §1

[13] = test system: HCC1599; assay: as above
Outline: as §1

[14] = test system: MDA-MB-468; assay: as above
Outline: as §1

[15] = test system: DU-4475; assay: as above
Outline: as §1

[16] = test system: Hs578T; assay: as above
Outline: as §1

[17] = test system: MDA-MB-436; assay: as above
Outline: as §1

[18] = test system: HCC1143; assay: as above
Outline: as §1

[19] = test system: HDQ-P1; assay: as above
Outline: as §1

[20] = test system: CAL-148; assay: drug sensitivity score (DSS), CellTox Green (DSS (AUC-based score)); higher = stronger drug effect (viability inhibition or cytotoxicity); extreme values may be limits of the assay
Outline: as §1

[21] = test system: MDA-MB-468; assay: as above
Outline: as §1

[22] = test system: Hs578T; assay: as above
Outline: as §1

[23] = test system: HDQ-P1; assay: as above
Outline: as §1

Structure (SMILES) | drug sensitivity score [1] | drug sensitivity score [2] | drug sensitivity score [3] | drug sensitivity score [4] | drug sensitivity score [5] | drug sensitivity score [6] | drug sensitivity score [7] | drug sensitivity score [8] | drug sensitivity score [9] | drug sensitivity score [10] | drug sensitivity score [11] | drug sensitivity score [12] | drug sensitivity score [13] | drug sensitivity score [14] | drug sensitivity score [15] | drug sensitivity score [16] | drug sensitivity score [17] | drug sensitivity score [18] | drug sensitivity score [19] | drug sensitivity score [20] | drug sensitivity score [21] | drug sensitivity score [22] | drug sensitivity score [23]
CO[C@H](C(=O)[C@@H](O)[C@@H](C)O)[C@@H]1Cc2cc3cc(O[C@H]4C[C@@H](O[C@@H]5C[C@@H](O)[C@H](O)[C@@H](C)O5)[C@H](O)[C@@H](C)O4)c(C)c(O)c3c(O)c2C(=O)[C@H]1O[C@H]1C[C@@H](O[C@@H]2C[C@@H](O)[C@@H](O[C@@H]3C[C@](C)(O)[C@H](O)[C@@H](C)O3)[C@@H](C)O2)[C@H](O)[C@@H](C)O1 [Plicamycin] | 5.67 | 1.97 | 4.43 | 4.28 | 2.12 | 6.47 | 7.16 | 3.11 | 4.1 | 4.37 | 18.2 | 3.86 | 3.99 | 6.69 | 5.55 | 4.2 | 2.49 | 4.54 | 2.83 | 0 | 9.57 | 1.28 | 0
NC(=O)c1cccc2cn(-c3ccc([C@@H]4CCCNC4)cc3)nc12 [MK-4827] | 0 | 0 | 0.954 | 0 | 0 | 0 | 0 | 0 | 0 | 0 | 0 | 0 | 0 | 1.06 | 2.22 | 0 | 3.73 | 0 | 0 | 0 | 0 | 0 | 0
Cc1c(C(=O)Nc2ccc(N3C[C@@H](C)O[C@@H](C)C3)nc2)cccc1-c1ccc(OC(F)(F)F)cc1 [Erismodegib] | 0 | 1.41 | 0 | 0 | 0 | 3.21 | 1.37 | 0 | 0 | 0 | 4.99 | 0 | 0 | 1.28 | 0 | 0 | 2.73 | 0 | 0.664 | 2.18 | 0 | 0 | 0
N[C@@H](Cc1ccc(N(CCCl)CCCl)cc1)C(=O)O [Melphalan] | 20.7 | 19.3 | 19.5 | 17.6 | 11.5 | 19.2 | 14.4 | 21.3 | 17.4 | 20.2 | 21.3 | 20.5 | 17.2 | 21.5 | 19.1 | 16.2 | 16.6 | 13.9 | 19.5 | 18.5 | 19.7 | 12.4 | 18.4
Cn1nnc2c(C(N)=O)ncn2c1=O [Temozolomide] | 0 | 0 | 0 | 0 | 0 | 0 | 0 | 0 | 0 | 0 | 0 | 0 | 0 | 0 | 0 | 0 | 0 | 0 | 0 | 0 | 0 | 0 | 0
COc1cc(Nc2ncc(F)c(Nc3ccc4c(n3)N(COP(=O)(O)O)C(=O)C(C)(C)O4)n2)cc(OC)c1OC [Fostamatinib] | 6.92 | 7.93 | 0 | 7.38 | 5.15 | 4.12 | 4.31 | 0 | 2.69 | 1.88 | 0 | 1.13 | 0 | 0 | 0 | 4.77 | 0 | 1.25 | 2.19 | 0 | – | 3.65 | 0
COc1cc2c(cc1-c1c(C)noc1C)ncc1[nH]c(=O)n([C@H](C)c3ccccn3)c12 [I-BET151] | 2.63 | 6.13 | 0 | 5.37 | 5.1 | 3.77 | 8.5 | 7.96 | 8.93 | 2.32 | 3.89 | 3.27 | 0 | 3.38 | 3.45 | 9.14 | 0 | 1.94 | 3.02 | 0 | 5.63 | 0 | 5.77
NC1(c2ccc(-c3nc4ccn5c(=O)[nH]nc5c4cc3-c3ccccc3)cc2)CCC1 [MK-2206] | 0 | 1.78 | 1.35 | 0 | 0 | 0 | 2.74 | 5.41 | 0 | 0 | 0 | 3.43 | 0 | 0.936 | 0.0487 | 0.281 | 0 | 0 | 0 | 3.64 | 0 | 0 | 0
CC[C@H](CC#N)OC(=O)N[C@@H](C)c1cccc(NC(=O)Nc2ccc(-c3cnco3)c(OC)c2)c1 [AVN944] | 9.58 | 6.05 | 12.5 | 8.88 | 8.08 | 8.56 | 15.9 | 0 | 13.1 | 9.9 | 16.5 | 9.68 | 11.4 | 17.1 | 13.4 | 10.1 | 12.9 | 11.7 | 11.7 | 0 | 0 | 12.6 | 0
CCCc1cc(C)[nH]c(=O)c1CNC(=O)c1cc(-c2ccnc(N3CCN(C)CC3)c2)cc2c1cnn2C(C)C [GSK343] | 4.65 | 2.85 | 0.724 | 0 | 0 | 3.79 | 1.73 | 6.37 | 1.9 | 0 | 0 | 6.24 | 3.37 | 5.85 | 1.22 | 0 | 1.6 | 0 | 0 | 0 | 0 | 4.43 | 0
CC(C)n1nc(-c2ccc3oc(N)nc3c2)c2c(N)ncnc21 [INK128] | 11.2 | 15.5 | 14.7 | 12 | 14.9 | 11.5 | 15.9 | 14.8 | 14.2 | 8.72 | 16.5 | 20.3 | 4.56 | 13.5 | 8.44 | 13.8 | 11.3 | 13 | 13.5 | 8.35 | 0 | 10.3 | 0
CC(C)C(=O)Nc1ccc([N+](=O)[O-])c(C(F)(F)F)c1 [Flutamide] | 0 | 0 | 0 | 0 | 0 | 0 | 0 | 0 | 0 | 0 | 0.0535 | 0 | 0 | 0 | 0 | 0 | 0 | 0 | 0 | – | 0 | 0 | 0
O=C(c1cc(Cc2n[nH]c(=O)c3ccccc23)ccc1F)N1CCN(C(=O)C2CC2)CC1 [Olaparib] | 0 | 0 | 2.94 | 0 | 1.26 | 0 | 1.44 | 0 | 0 | 0 | 10.1 | 0 | 0 | 2.57 | 0 | 0 | 4.69 | 0 | 0 | 0 | 0 | 0 | –
O=C(O)CC[C@H]1CC[C@@](c2cc(F)ccc2F)(S(=O)(=O)c2ccc(Cl)cc2)CC1 [MK-0752] | 0 | 0 | 0 | 0 | 0 | 0 | 0 | 0 | 0 | 0 | 0 | 0 | 0 | 0 | 0 | 0 | 0 | 0 | 0 | – | 0 | 0 | 0
CCN(CC)CCOc1ccc(C(=C(Cl)c2ccccc2)c2ccccc2)cc1 [Clomifene] | 5.02 | 2.2 | 0 | 1.05 | 0 | 4.51 | 1.96 | 5.37 | 3.91 | 5.68 | 0 | 2.09 | 6.16 | 0 | 2.97 | 4.79 | 0 | 0 | 0 | 0 | 0 | 7.35 | –
CN1CCN(c2nc(C3=C(c4c[nH]c5ccccc45)C(=O)NC3=O)c3ccccc3n2)CC1 [Sotrastaurin] | 0 | 0 | 0 | 0 | 0 | 0 | 0 | 0 | 0 | 0 | 0 | 1.56 | 0 | 0 | 1.72 | 0 | 0 | 0 | 0.186 | – | 0 | 0 | 0
